Experimental data from patent US20150252022A1, “RETINOIC ACID RECEPTOR-RELATED ORPHAN RECEPTOR MODULATORS AND USES THEREOF” (INNOV17 LLC, priority 2014, published 2015).

Legend:
Type in all cases: cell-based
Conditions in all cases: 72 h; human CD4+ T cells under TH17-polarizing conditions, 3 days, supernatant ELISA
IL-17F = assay: Human TH17 Cytokine Inhibition as measured by ELISA (IL-17F)
Experimental: (§1) Peripheral blood mononuclear cells (PBMCs) were sourced from freshly prepared leukocyte enriched plasma (buffy coat) from healthy donors (New York Blood Center). PBMCs were isolated by density gradient centrifugation using Ficoll-Paque™ PLUS (GE Healthcare). Human CD4+ T cells were seeded into 96-well plates (5×10^4 cells/well) and activated with plate-bound anti-human (h)-CD3 antibody and soluble h-aCD28 (both at 1 ug/ml; eBioscience) and differentiated into TH17 cells with 20 ng/mL h-IL-6, 5 ng/mL h-TGF-β1, 10 ng/mL h-IL-23 (eBioscience) and 10 ng/mL IL-1β (Miltenyi Biotec) in serum-free TexMACS Medium (Miltenyi Biotec) supplemented with 1% Penicillin/Streptomycin (Lonza) for 3 days. CD4+ T cells propagated under TH17-polarizing conditions were cultured in the presence or absence of various concentrations of compounds with a final concentration of 0.1% DMSO. Supernatants were collected and stored at −20° C. until assayed for IL-17A, IL-17F and IL-21 levels by “Ready-Set-Go” ELISA kits (eBioscience) as per manufacturer's instructions. Endpoint absorbance was read at 450 nm using a microplate reader (Perkin Elmer).

IL-21 = assay: Human TH17 Cytokine Inhibition as measured by ELISA (IL-21)
Experimental: as §1

IL-17A = assay: Human TH17 Cytokine Inhibition as measured by ELISA (IL-17A)
Experimental: as §1

| IC50 (IL-17F) [µM] | IC50 (IL-21) [µM] | IC50 (IL-17A) [µM] | Structure (SMILES) |
| --- | --- | --- | --- |
| < 10 | < 10 | < 10 | O=C(CCc1ccccc1)N1CCC(Cn2ccc3cc(-c4cnn(CCO)c4)ccc32)CC1 [Example 118, 1-(4-((5-(1-(2-hydroxyethyl)-1H-pyrazol-4-yl)-1H-indol-1-yl)methyl)piperidin-1-yl)-3-phenylpropan-1-one] |
| > 10 | < 10 | > 10 | NC(=O)Cn1cc(-c2ccc3c(ccn3CC3CCN(C(=O)CCc4ccccc4)CC3)c2)cn1 [Example 119, 2-(4-(1-((1-(3-phenylpropanoyl)piperidin-4-yl)methyl)-1H-indol-5-yl)-1H-pyrazol-1-yl)acetamide] |
| < 10 | < 10 | < 10 | Cc1ncc(-c2ccc3c(ccn3CC3CCN(C(=O)CCc4ccccc4)CC3)c2)s1 [Example 120, 1-(4-((5-(2-methylthiazol-5-yl)-1H-indol-1-yl)methyl)piperidin-1-yl)-3-phenylpropan-1-one] |
| < 10 | < 10 | < 10 | O=C(CCc1ccccc1)N1CCC(Cn2ccc3cc(-c4cnccn4)ccc32)CC1 [Example 121] |
| < 10 | < 10 | < 10 | Cc1ccc(-c2ccc3c(ccn3CC3CCN(C(=O)CCc4ccccc4)CC3)c2)nc1 [Example 122] |
| < 10 | < 10 | < 10 | Cc1ccncc1-c1ccc2c(ccn2CC2CCN(C(=O)CCc3ccccc3)CC2)c1 [Example 123] |
| < 10 | < 10 | < 10 | O=C(CCc1ccccc1)N1CCC(Cn2ccc3cc(-c4cncs4)ccc32)CC1 [Example 124] |
| < 10 | < 10 | < 10 | Cn1cc(-c2ccc3c(ccn3CC3CCN(C(=O)CCc4ccccc4)CC3)c2)cn1 [Example 125] |
| < 10 | < 10 | < 10 | Cc1cc2cc(-c3cn[nH]c3)ccc2n1CC1CCN(C(=O)CCc2ccccc2)CC1 [Example 132, 1-(4-((2-methyl-5-(1H-pyrazol-4-yl)-1H-indol-1-yl)methyl)piperidin-1-yl)-3-phenylpropan-1-one] |
| < 10 | < 10 | < 10 | Cc1cc2cc(-c3cn[nH]c3)ccc2n1CC1CCN(C(=O)Cc2ccccc2)CC1 [Example 133, 1-(4-((2-methyl-5-(1H-pyrazol-4-yl)-1H-indol-1-yl)methyl)piperidin-1-yl)-2-phenylethanone] |
